Activity calls are given as the source filed them. No cut-off for these calls is given here.
Experiments:
Aspergillus niger = assay: Inhibitory activity against Alpha-galactosidase of Aspergillus niger at 1 mM; No inhibition
[1] = tested on: maltase (Saccharomyces cerevisiae); assay: Inhibitory activity against maltase of yeast at 1 mM; No inhibition
maltase (Oryza sativa) [2] = assay: Inhibitory activity against maltase of rice at 1 mM; No inhibition
[3] = tested on: Beta-N-acetylglucosaminidase (Canavalia ensiformis); assay: Inhibitory activity against Beta-N-acetylglucosaminidase of Jack bean at 1 mM; No inhibition
[4] = molecular target: T1, Tissue alpha-L-fucosidase (Homo sapiens, UniProt P04066); assay: Inhibitory concentration against alpha-L-Fucosidase of human placenta
T1 sequence (P04066 whole entry): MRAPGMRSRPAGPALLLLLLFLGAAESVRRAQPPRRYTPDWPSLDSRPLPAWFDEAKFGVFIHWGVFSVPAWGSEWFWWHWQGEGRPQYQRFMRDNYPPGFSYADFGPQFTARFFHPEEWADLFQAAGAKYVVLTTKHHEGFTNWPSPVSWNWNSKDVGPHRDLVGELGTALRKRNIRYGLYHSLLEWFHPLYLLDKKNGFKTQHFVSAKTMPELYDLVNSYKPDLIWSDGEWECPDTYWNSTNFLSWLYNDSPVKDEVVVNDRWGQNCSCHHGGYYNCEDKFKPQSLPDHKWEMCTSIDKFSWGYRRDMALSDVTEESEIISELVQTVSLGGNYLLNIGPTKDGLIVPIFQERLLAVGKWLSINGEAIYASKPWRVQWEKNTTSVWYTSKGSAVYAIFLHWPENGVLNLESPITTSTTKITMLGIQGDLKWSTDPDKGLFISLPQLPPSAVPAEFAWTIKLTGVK

Prunus dulcis [5] = assay: Inhibitory activity against Alpha-mannosidase of Almonds at 1 mM; No inhibition
[6] = molecular target: Glucoamylase (Aspergillus niger) (UniProt P69328); assay: Inhibitory activity against Amyloglucosidase of Aspergillus niger at 1 mM; No inhibition
[7] = tested on: Beta-N-acetylglucosaminidase (Bos taurus); assay: Inhibitory activity against Beta-N-acetylglucosaminidase of bovine epididymis B at 1 mM; No inhibition
[8] = tested on: Beta-N-acetylglucosaminidase (Bos taurus); assay: Inhibitory activity against Beta-N-acetylglucosaminidase of bovine epididymis A at 1 mM; No inhibition
Helix pomatia = assay: Inhibitory activity against Beta-mannosidase of Helix pomatia at 1 mM; No inhibition
Aspergillus oryzae = assay: Inhibitory activity against Beta-D-galactosidase of Aspergillus oryzae at 1 mM; No inhibition
Canavalia ensiformis [9] = assay: Inhibitory activity against Beta-D-galactosidase of Jack bean at 1 mM; No inhibition
[10] = tested on: Caldicellulosiruptor saccharolyticus; assay: Inhibitory activity against Beta-glucosidase of Caldocellum saccharolyticum at 1 mM; No inhibition
Prunus dulcis [11] = assay: Inhibitory activity against Beta-glucosidase of almonds at 1 mM; No inhibition
Rhizopus = assay: Inhibitory activity against Amyloglucosidase of Rhizopus mold at 1 mM; No inhibition
Escherichia coli = assay: Inhibitory activity against Alpha-galactosidase of Escherichia coli at 1 mM; No inhibition
Bos taurus [12] = species on record: Bos taurus; assay: Percent inhibition against alpha-L-Fucosidase of bovine epididymis at 1 mM
Canavalia ensiformis [13] = assay: Inhibitory activity against Alpha-mannosidase of Jack bean at 1 mM; No inhibition
[14] = molecular target: Beta-galactosidase (Escherichia coli) (UniProt Q8VNN2); assay: Inhibitory activity against Beta-D-galactosidase of Escherichia coli at 1 mM; No inhibition
Gallus gallus = species on record: Gallus gallus; assay: Inhibitory activity against alpha-N-acetylgalactosaminidase of chicken liver at 1 mM; No inhibition
[15] = tested on: isomaltase (Saccharomyces cerevisiae); assay: Inhibitory activity against isomaltase of baker yeast at 1 mM; No inhibition
Coffea arabica = assay: Inhibitory activity against Alpha-galactosidase of coffee bean at 1 mM; No inhibition
[16] = molecular target: T2, Beta-galactosidase (Aspergillus niger) (UniProt P29853); assay: Inhibitory activity against Beta-D-galactosidase of Aspergillus niger at 1 mM; No inhibition
T2 sequence (whole entry): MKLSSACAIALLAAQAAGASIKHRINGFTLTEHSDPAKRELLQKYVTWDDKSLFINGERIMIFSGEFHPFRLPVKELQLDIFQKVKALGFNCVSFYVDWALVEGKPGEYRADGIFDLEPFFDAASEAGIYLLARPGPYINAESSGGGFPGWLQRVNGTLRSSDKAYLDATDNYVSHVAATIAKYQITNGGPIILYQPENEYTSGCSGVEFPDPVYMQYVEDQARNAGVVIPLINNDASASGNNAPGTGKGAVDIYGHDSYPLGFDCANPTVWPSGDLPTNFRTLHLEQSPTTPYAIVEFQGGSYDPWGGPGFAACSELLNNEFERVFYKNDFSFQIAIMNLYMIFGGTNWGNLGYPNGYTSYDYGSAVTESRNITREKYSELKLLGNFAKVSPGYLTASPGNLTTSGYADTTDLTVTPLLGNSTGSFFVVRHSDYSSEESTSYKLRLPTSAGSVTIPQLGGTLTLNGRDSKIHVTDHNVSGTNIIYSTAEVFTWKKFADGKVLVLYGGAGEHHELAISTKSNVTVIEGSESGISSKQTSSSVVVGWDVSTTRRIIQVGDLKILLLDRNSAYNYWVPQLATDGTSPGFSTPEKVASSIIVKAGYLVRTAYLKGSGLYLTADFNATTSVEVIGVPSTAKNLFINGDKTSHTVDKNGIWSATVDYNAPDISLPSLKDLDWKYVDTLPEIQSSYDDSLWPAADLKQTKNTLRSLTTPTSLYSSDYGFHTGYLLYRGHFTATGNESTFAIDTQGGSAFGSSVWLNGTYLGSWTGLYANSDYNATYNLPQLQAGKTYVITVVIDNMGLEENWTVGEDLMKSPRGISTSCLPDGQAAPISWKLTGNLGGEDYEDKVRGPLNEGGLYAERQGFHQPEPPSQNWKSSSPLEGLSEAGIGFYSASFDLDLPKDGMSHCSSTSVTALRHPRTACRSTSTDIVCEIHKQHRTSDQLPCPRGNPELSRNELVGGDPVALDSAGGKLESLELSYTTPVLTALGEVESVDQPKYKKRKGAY

[17] = molecular target: T3, Tissue alpha-L-fucosidase (Homo sapiens) (UniProt P04066); assay: Percent inhibition against alpha-L-Fucosidase of human placenta at 1 mM
T3 sequence (whole entry): T1 sequence (P04066 whole entry)

[18] = molecular target: T4, Beta-galactosidase (Bos taurus) (UniProt Q58D55); assay: Percent inhibition against Beta-D-galactosidase of bovine liver at 1 mM
T4 sequence (whole entry): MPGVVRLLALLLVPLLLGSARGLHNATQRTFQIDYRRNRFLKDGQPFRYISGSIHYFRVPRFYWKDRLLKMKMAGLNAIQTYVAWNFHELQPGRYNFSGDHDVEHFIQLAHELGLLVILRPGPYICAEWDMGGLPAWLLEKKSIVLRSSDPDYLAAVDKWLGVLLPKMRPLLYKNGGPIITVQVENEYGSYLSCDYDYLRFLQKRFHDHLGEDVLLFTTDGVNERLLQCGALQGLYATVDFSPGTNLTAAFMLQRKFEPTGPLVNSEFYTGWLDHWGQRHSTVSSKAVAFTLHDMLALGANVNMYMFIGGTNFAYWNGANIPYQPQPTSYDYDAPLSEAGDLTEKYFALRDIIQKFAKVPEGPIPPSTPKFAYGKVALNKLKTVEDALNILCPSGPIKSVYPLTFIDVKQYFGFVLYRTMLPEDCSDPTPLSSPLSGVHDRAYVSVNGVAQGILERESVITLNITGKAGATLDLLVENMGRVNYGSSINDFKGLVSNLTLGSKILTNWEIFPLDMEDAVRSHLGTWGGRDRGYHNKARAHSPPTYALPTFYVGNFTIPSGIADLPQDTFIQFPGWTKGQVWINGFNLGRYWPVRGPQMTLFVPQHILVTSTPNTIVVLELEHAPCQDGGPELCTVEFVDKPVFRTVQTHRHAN

[19] = molecular target: Glucoamylase (Aspergillus niger) (UniProt P69328); assay: Percent inhibition against Amyloglucosidase of Aspergillus niger at 1 mM
Prunus dulcis [20] = assay: Percent inhibition against Alpha-mannosidase of Almonds at 1 mM
Canavalia ensiformis [21] = assay: Percent inhibition against Alpha-mannosidase of Jack bean at 1 mM
Bos taurus [22] = species on record: Bos taurus; assay: Inhibitory activity against alpha-L-Fucosidase of bovine epididymis at 1 mM; No inhibition
[23] = molecular target: T3, Tissue alpha-L-fucosidase (Homo sapiens); assay: Inhibitory activity against alpha-L-Fucosidase of human placenta at 1 mM; No inhibition
maltase (Oryza sativa) [24] = assay: Inhibitory activity against maltase of rice at 1 mM
[25] = molecular target: T2, Beta-galactosidase (Aspergillus niger); conditions: 1 mM
Description: Percent inhibition against Beta-D-galactosidase of Aspergillus niger at 1 mM

Glucoamylase (Aspergillus niger), sequence (P69328 whole entry): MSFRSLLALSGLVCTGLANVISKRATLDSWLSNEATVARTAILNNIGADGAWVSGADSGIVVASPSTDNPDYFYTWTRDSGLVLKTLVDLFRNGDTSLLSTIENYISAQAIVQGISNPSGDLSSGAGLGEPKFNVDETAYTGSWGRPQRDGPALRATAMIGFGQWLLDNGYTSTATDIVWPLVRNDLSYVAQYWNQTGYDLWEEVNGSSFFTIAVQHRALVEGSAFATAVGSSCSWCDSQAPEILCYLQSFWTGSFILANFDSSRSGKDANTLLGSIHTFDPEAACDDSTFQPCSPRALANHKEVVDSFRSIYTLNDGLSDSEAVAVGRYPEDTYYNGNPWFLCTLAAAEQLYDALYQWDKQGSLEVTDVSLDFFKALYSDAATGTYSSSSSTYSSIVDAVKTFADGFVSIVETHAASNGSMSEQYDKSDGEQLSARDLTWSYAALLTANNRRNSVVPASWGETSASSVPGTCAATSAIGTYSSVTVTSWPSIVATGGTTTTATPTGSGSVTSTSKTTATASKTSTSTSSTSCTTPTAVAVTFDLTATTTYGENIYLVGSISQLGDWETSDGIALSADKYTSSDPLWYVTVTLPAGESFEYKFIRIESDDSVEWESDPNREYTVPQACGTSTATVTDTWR
Beta-galactosidase (Escherichia coli), sequence (Q8VNN2 whole entry, looked up): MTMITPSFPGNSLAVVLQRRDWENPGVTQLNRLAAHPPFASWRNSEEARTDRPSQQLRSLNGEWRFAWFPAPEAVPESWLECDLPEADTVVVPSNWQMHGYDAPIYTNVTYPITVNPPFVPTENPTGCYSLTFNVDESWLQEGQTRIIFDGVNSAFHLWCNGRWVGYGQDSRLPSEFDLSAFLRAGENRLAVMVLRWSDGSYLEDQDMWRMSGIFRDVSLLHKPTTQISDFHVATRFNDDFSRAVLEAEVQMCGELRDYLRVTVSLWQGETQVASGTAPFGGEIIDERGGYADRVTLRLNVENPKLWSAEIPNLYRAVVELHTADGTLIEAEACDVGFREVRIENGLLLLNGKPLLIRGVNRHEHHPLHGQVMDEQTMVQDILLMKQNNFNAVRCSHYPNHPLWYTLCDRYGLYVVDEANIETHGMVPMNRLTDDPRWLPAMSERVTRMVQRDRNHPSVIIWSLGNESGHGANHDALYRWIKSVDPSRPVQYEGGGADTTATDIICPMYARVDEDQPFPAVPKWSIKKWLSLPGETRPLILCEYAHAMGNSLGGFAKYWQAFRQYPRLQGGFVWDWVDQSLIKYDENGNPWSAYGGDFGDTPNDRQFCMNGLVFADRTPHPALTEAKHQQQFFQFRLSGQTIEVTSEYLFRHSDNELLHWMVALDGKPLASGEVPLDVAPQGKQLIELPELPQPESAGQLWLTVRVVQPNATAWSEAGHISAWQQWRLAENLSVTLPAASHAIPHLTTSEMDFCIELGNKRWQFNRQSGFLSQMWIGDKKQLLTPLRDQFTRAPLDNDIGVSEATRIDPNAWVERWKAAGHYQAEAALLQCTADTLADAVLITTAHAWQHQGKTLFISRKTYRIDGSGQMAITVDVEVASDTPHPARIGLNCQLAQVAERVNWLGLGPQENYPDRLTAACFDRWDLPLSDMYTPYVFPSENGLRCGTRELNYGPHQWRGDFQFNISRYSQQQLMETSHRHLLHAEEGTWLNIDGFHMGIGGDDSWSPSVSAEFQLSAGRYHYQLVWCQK

| Structure (SMILES) | inhibition (Aspergillus niger) | inhibition [1] | inhibition [3] | inhibition (Prunus dulcis [5]) | inhibition [6] | inhibition [7] | inhibition [8] | inhibition (Helix pomatia) | inhibition (Aspergillus oryzae) | inhibition (Canavalia ensiformis [9]) | inhibition [10] | inhibition (Prunus dulcis [11]) | inhibition (Rhizopus) | inhibition (Escherichia coli) | inhibition (Canavalia ensiformis [13]) | inhibition [14] | inhibition (Gallus gallus) | inhibition [15] | inhibition [16] | inhibition [18] [%] | also measured |
| --- | --- | --- | --- | --- | --- | --- | --- | --- | --- | --- | --- | --- | --- | --- | --- | --- | --- | --- | --- | --- | --- |
| Cc1oc(C2NCC(O)C2O)cc1C(=O)Nc1ccccc1 (configuration not stated) | inactive | inactive | inactive | inactive | inactive | inactive | inactive | No inhibition | inactive | inactive | No inhibition | inactive | inactive | inactive | inactive | inactive | inactive | inactive | inactive | 39 | inhibition (maltase (Oryza sativa) [2]): inactive; IC50 [4]: 1000 µM; inhibition (Bos taurus [12]): < 10%; inhibition (Coffea arabica): inactive; inhibition [17]: 51% |
| Cc1oc(C2NCC(O)C2O)cc1C(=O)NC(C)C (configuration not stated) |  |  |  |  |  |  |  |  |  |  |  |  |  |  |  | inactive |  |  | inactive | 38 | inhibition [19]: 23%; inhibition (Prunus dulcis [20]): 29% |
| CCN(CC)C(=O)c1cc(C2NCC(O)C2O)oc1C (configuration not stated) |  |  |  |  | inactive |  |  |  |  |  |  |  |  |  |  | inactive |  |  | inactive | 58 | inhibition (Canavalia ensiformis [21]): 27%; inhibition (Prunus dulcis [20]): 31% |
| CCNC(=O)c1cc(C2NCC(O)C2O)oc1C (configuration not stated) |  |  |  |  | inactive |  |  |  |  |  |  |  |  |  |  | inactive |  |  | inactive | 52 | inhibition (Canavalia ensiformis [21]): 29%; inhibition (Prunus dulcis [20]): 32% |
| Cc1oc(C2NCC(O)C2O)cc1CO (configuration not stated) | inactive | inactive | inactive | inactive | inactive | inactive | inactive | No inhibition | inactive | inactive | No inhibition | inactive | inactive | inactive | inactive | inactive | inactive | inactive | inactive | 50 | inhibition (Bos taurus [22]): inactive; inhibition (maltase (Oryza sativa) [2]): inactive; inhibition [23]: inactive; inhibition (Coffea arabica): inactive |
| Cc1oc(C2NCC(O)C2O)cc1C(=O)O (configuration not stated) | inactive | inactive | inactive | inactive | inactive | inactive | inactive | No inhibition | inactive | inactive | No inhibition | inactive | inactive | inactive | inactive | inactive | inactive | inactive | inactive | 30 | inhibition (Bos taurus [22]): inactive; inhibition (maltase (Oryza sativa) [24]): No inhibition; inhibition [23]: inactive; inhibition (Coffea arabica): inactive |
| CCOC(=O)c1cc(C2NCC(O)C2O)oc1C (configuration not stated) |  |  |  | inactive | inactive |  |  |  |  |  |  |  |  |  |  | inactive |  |  |  | 57 | inhibition (Canavalia ensiformis [21]): 38%; inhibition [25]: 80%; inhibition [17]: 76% |
